Results published in publication PMC4057896 (Journal of molecular biology, 2014).
“Also recorded” adds a separate entry of the source.

Experiments:
hexon trimer [1] = assay: Native MS of hexon-pVIn reconstituted from purified hexon and synthetic pVIn; format: binding, human adenovirus (Ad5 hexon)
hexon trimer [2] = assay: Native MS of endogenous hexon-pVIn complexes from heat-disrupted virions; format: binding, human adenovirus (Ad5F35)
hexon trimers = conditions: in vitro; ref [15]; cited from earlier work
[3] = 1:2 hexon:pVIn, pH range 4–9, native MS, triplicate
[4] = 150 mM ammonium acetate pH 5, released fraction

Row | Substance | strength of hexon-pVIn interaction at cytosolic pH (hexon trimer [1]; [3]) | strength of hexon-pVIn interaction at endosomal pH (hexon trimer [1]; [3]) | dissociation of hexon-pVIn towards pH 8 (hexon trimer [1]; 1:2 hexon:pVIn, pVIn 1 µM, hexon trimer 0.5 µM, native MS, 150 mM ammonium acetate, triplicate) | residual endogenous pVIn bound to purified hexons (hexon trimer [1]; hexons isolated from virus-infected cells, no synthetic pVIn added, native MS) | binding of pVIn to hexon trimer at pH 5 (hexon trimer [2]; [4]) | pVIn molecules/hexon trimer at pH 5 (hexon trimer [2]; [4]) | binding of pVIn to hexon trimer at pH 9 (hexon trimer [2]; 150 mM ammonium acetate pH 9, released fraction) | affinity for hexon trimers (hexon trimers)
1 | MEDINFASLAPRHGSRPFMGNWQDIGTSNMSGG [pVIn] | relatively weak | strongest | near-complete dissociation | approximately 3 % of maximum occupancy | nearly complete binding; also recorded: fully retained on hexon trimers | 3 pVIn molecules/hexon trimer | only free hexon trimers were recovered and detected | –
2 | pVI: 250 aa precursor of human adenovirus minor capsid protein VI | – | – | – | – | – | – | – | high affinity; also recorded: nanomolar affinity
